What was measured:
Type in all cases: in vivo
[1] = system: velvetleaf (Abutilon theophrasti); experiment: Test B postemergence; conditions: 13 to 15 days
Procedure, shortened: (§1)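 Greenhouse test: chemicals are formulated in a surfactant-containing non-phytotoxic solvent and applied either preemergence to planted seeds or postemergence to plants 2 to 18 cm tall. Response is rated visually versus controls after 13 to 15 days, 0 meaning no effect and 100 complete control.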

corn (Zea mays) = experiment: Test B postemergence; conditions: 13 to 15 days
Procedure, shortened: as §1

[2] = system: wheat (Triticum aestivum); experiment: Test B postemergence; conditions: 13 to 15 days
Procedure, shortened: as §1

[3] = system: giant foxtail (Setaria faberii); experiment: Test B postemergence; conditions: 13 to 15 days
Procedure, shortened: as §1

[4] = system: johnsongrass (Sorghum halepense); experiment: Test C preemergence
Procedure, shortened: (§2)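 Compounds in non-phytotoxic solvent with surfactant applied preemergence to planted seeds and postemergence to plants at 1- to 4-leaf stage (2–18 cm). Kept in greenhouse 12–14 days, then visually rated against controls on a 0 (no effect) to 100 (complete control) scale.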

[5] = system: pigweed (Amaranthus retroflexus); experiment: Test C preemergence
Procedure, shortened: as §2

Sunflower = experiment: Test C preemergence
Nightshade = experiment: Test C preemergence
[6] = system: cocklebur (Xanthium strumarium); experiment: Test C preemergence
Procedure, shortened: as §2

soybean (Glycine max) = experiment: Test C preemergence
Procedure, shortened: as §2

[7] = system: lambsquarters (Chenopodium album); experiment: Test C preemergence
Procedure, shortened: as §2

[8] = system: crabgrass (Digitaria sanguinalis); experiment: Test C preemergence
Procedure, shortened: as §2

[9] = system: velvetleaf (Abutilon theophrasti); experiment: Test C preemergence
Procedure, shortened: as §2

[10] = system: goosegrass (Eleusine indica); experiment: Test C preemergence
Procedure, shortened: as §2

[11] = system: woolly cupgrass (Eriochloa villosa); experiment: Test C preemergence
Procedure, shortened: as §2

[12] = system: giant foxtail (Setaria faberii); experiment: Test C preemergence
Procedure, shortened: as §2

[13] = system: bermudagrass (Cynodon dactylon); experiment: Test C preemergence
Procedure, shortened: as §2

[14] = system: yellow nutsedge (Cyperus esculentus); experiment: Test C preemergence
Procedure, shortened: as §2

[15] = Rate 125 g/ha, scale 0 (no effect) to 100 (complete control)
[16] = Rate 500 g/ha, scale 0 to 100, 0 is no effect, 100 is complete control
[17] = Preemergence, Rate 500 g/ha, scale 0 to 100
[18] = Rate 62 g/ha, scale 0 to 100, 0 no effect, 100 complete control
[19] = preemergence, Rate 250 g/ha, visual evaluation after 12 to 14 days
[20] = preemergence, Rate 125 g/ha, scale 0 to 100, 0 no effect, 100 complete control

CC(C)(C)c1ccn(C2CCN(c3cccc(C(F)(F)F)c3)C2=S)n1 (stereo not shown) [Compound 22]
Plant response rating, Velvetleaf [1, 15]: 20
Plant response rating, Velvetleaf [1, 16]: 30
Plant response rating, Corn (corn (Zea mays); [15]): 0
Plant response rating, Corn (corn (Zea mays); [16]): 0
Plant response rating, Wheat [2, 15]: 0
Plant response rating, Wheat [2, 16]: 0
Plant response rating, Foxtail, Giant [3, 15]: 0
Plant response rating, Foxtail, Giant [3, 16]: 0
Plant response rating, Johnsongrass [4, 17]: 40
Plant response rating, Johnsongrass [4, 18]: 20
Plant response rating (0 to 100), Johnsongrass [4, 19]: 40
Plant response rating, Johnsongrass [4, 20]: 30
Plant response rating, Pigweed [5, 17]: 100
Plant response rating, Pigweed [5, 18]: 100
Plant response rating (0 to 100), Pigweed [5, 19]: 50
Plant response rating, Pigweed [5, 20]: 50
Plant response rating, Sunflower (Sunflower; [18]): 0
Plant response rating, Sunflower (Sunflower; Rate 500 g/ha, scale 0 to 100): 0
Plant response rating, Nightshade (Nightshade; [18]): 0
Plant response rating, Nightshade (Nightshade; Rate 125 g/ha, scale 0 to 100, 0 no effect, 100 complete control): 0
Plant response rating, Nightshade (Nightshade; Rate 500 g/ha, scale 0 to 100): 80
Plant response rating, Cocklebur [6, 17]: 0
Plant response rating, Cocklebur [6, 18]: 0
Plant response rating (0 to 100), Cocklebur [6, 19]: 0
Plant response rating, Cocklebur [6, 20]: 0
Plant response rating, Soybean (soybean (Glycine max); [17]): 40
Plant response rating, Soybean (soybean (Glycine max); [18]): 30
Plant response rating (0 to 100), Soybean (soybean (Glycine max); [19]): 40
Plant response rating, Soybean (soybean (Glycine max); [20]): 40
Plant response rating, Lambsquarters [7, 17]: 100
Plant response rating, Lambsquarters [7, 18]: 100
Plant response rating (0 to 100), Lambsquarters [7, 19]: 100
Plant response rating, Lambsquarters [7, 20]: 100
Plant response rating, Crabgrass [8, 17]: 100
Plant response rating, Crabgrass [8, 18]: 50
Plant response rating (0 to 100), Crabgrass [8, 19]: 100
Plant response rating, Crabgrass [8, 20]: 100
Plant response rating, Velvetleaf [9, 17]: 0
Plant response rating, Velvetleaf [9, 18]: 0
Plant response rating (0 to 100), Velvetleaf [9, 19]: 0
Plant response rating, Velvetleaf [9, 20]: 0
Plant response rating, Goosegrass [10, 17]: 100
Plant response rating, Goosegrass [10, 18]: 90
Plant response rating (0 to 100), Goosegrass [10, 19]: 100
Plant response rating, Goosegrass [10, 20]: 90
Plant response rating, Cupgrass, Woolly [11, 17]: 100
Plant response rating, Cupgrass, Woolly [11, 18]: 40
Plant response rating (0 to 100), Cupgrass, Woolly [11, 19]: 100
Plant response rating, Cupgrass, Woolly [11, 20]: 70
Plant response rating, Foxtail, Giant [12, 17]: 100
Plant response rating, Foxtail, Giant [12, 18]: 30
Plant response rating (0 to 100), Foxtail, Giant [12, 19]: 0
Plant response rating, Foxtail, Giant [12, 20]: 0
Plant response rating, Bermudagrass [13, 17]: 100
Plant response rating, Bermudagrass [13, 18]: 30
Plant response rating (0 to 100 where 0 is no effect and 100 is complete control), Bermudagrass [13, 19]: 100
Plant response rating, Bermudagrass [13, 20]: 100
Plant response rating, Nutsedge [14, 17]: 20
Plant response rating, Nutsedge [14, 18]: 0
Plant response rating (0 to 100), Nutsedge [14, 19]: 0
Plant response rating, Nutsedge [14, 20]: 0

Reference: US7138361B2, “Herbicidal heterocycles” (E. I. du Pont de Nemours and Company, priority 2000, dated 2006)
